Measurements reported in patent US11638427B2, “Methods and compositions for altering secondary metabolites in plants” (Impello Biosciences, Inc, priority 2020, dated 2023).

Tests used:
Test in all cases: Fruit MDJ dips, 2 weeks observation
Format in all cases: in vivo
[1] = tested on: avocados
Protocol: (§1) For fruit MDJ dips, all fruits were purchased from a local market as certified organic on 4/13/2021. Before any treatments, all fruits were submerged in boiling water to melt off any non-natural waxy coating then dried with a washcloth. Once fruits were clean and dry, they were submerged in varying concentrations of methyl dihydrojasmonate solutions. Each solution was prepared from a 1M MDJ Tween 20 stock solution diluted with RO water. 500 ml of each solution was prepared and reused for the different fruits. Each fruit was submerged for 20 seconds and then left to dry on a paper towel. After the fruits were dry the paper towels were removed and fruits left on the lab bench at room temperature grouped by treatment but not touching and monitored for visual differences for 2 weeks. The pineapple was the only fruit that was not fully submerged but instead sprayed till drip with the varying concentration of MDJ/Tween 20 solution. Then left to dry and monitored the same as the other fruits.
(§2) Treatments and Sample Sizes:
(§3) Control, water—4 lemons, 2 oranges, 1 pineapple, 1 mango, 4 strawberries, 2 grapes (˜10 grapes/bundle), 2 oranges, 4 avocados
(§4) [5] mM MDJ—4 lemons, 3 oranges, 1 pineapple, 1 mango, 4 strawberries, 2 grapes, 2 oranges, 4 avocados
(§5) [10] mM MDJ—4 lemons, 3 oranges, 0 pineapple, 1 mango, 4 strawberries, 2 grapes, 2 oranges, 4 avocados
(§6) [20] mM MDJ—5 lemons, 3 oranges, 1 pineapple, 1 mango, 4 strawberries, 2 grapes, 2 oranges, 4 avocados
(§7) Qualitative observations like color changes, firmness, mold appearance were monitored and at the end of the two weeks all fruits were cut in half to record and further observations. Penetrometer readings were recorded in the last week of observations.

[2] = tested on: blood oranges; details: dip 5, 10, 20 mM; observation period 2 weeks
Protocol: as §1, §2, §3, §4, §5, §6, §7

[3] = tested on: grapes; details: dip 5, 10, 20 mM
Protocol: as §1, §2, §3, §4, §5, §6, §7

[4] = tested on: lemons; details: dip 5, 10, 20 mM for 20 seconds; 2 weeks at room temperature
Protocol: as §1, §2, §3, §4, §5, §6, §7

[5] = tested on: mangoes; details: one fruit per group
Protocol: as §1, §2, §3, §4, §5, §6, §7

[6] = tested on: oranges; details: dip 5, 10, 20 mM
Protocol: as §1, §2, §3, §4, §5, §6, §7

[7] = tested on: strawberries

With CCCCCC1C(=O)CCC1CC(=O)OC (centres unmarked) [MDJ, methyl dihydrojasmonate] the “browning when the fruits were cut open” value ([1]; dip 5 mM) was “least signs of browning”, the external browning ([1]; dip 10 mM and 20 mM groups (and control group)) was “more external browning” and the mold [2] was “no mold in any of the treatment groups”. For the same compound, the “mold or observable difference between groups” value [3] was “did not exhibit any mold, or observable difference between groups”, the “visual differences externally or internally” value [4] was “no distinct visual differences” and the “internal browning when cut open, relative to the control group” value ([5]; dip 5 mM) was “slightly less”. The “internal browning when cut open, relative to the control group” value ([5]; dip 10 mM) was “less still”, the “internal browning when cut open” value ([5]; dip 20 mM) was “no clear browning” and the mold [6] was “no appearance of mold”. For the same compound, the mold ([7]; dip 1 M) was “prohibited mold for two weeks” and the mold ([7]; dip 5, 10, 20 mM and control) was “mold in all groups after one week”.
